Test results reported in article PMC6805867, “Amphiphilic Triazine Polymer Derivatives as Antibacterial And Anti-atopic Agents in Mice Model” (Scientific Reports, 2019).

Assays:
[1] = system: serum total IgE and IgG2a; assay: DNCB-induced AD model, serum immunoglobulins by ELISA; format: in vivo, BALB/c mice; settings: versus AD-induced mice
Experimental: (§1) As described in our previous article, the 7-week-old female BALB/c mice were divided into seven groups (n = 8 per group): Control (Con) group, TZP3 200 μg/mL (TZP3) group, and TZP5 200 μg/mL (TZP5) group, DNCB-sensitized only (AD) group, DNCB-sensitized + TZP3 200 μg/mL (AD + TZP3) group, DNCB-sensitized + TZP5 200 μg/mL (AD + TZP5) group, DNCB-sensitized + Dermatop (Sanofi, Korea) 0.25% (AD + Dermatop) group. Dermatop was used as a positive control treatment. For the first induction of AD in the BALB/c mice, the backs of the mice were shaved and challenged with 200 μL of 1% 2,4-dinitrochlorobenzene(DNCB) in acetone/olive oil (3:1) one time (day−4). After 4 days from the induction, 0.5% DNCB was painted onto the backs of the mice every two days (day 2, 4, 6, 8, 10, 12, 14, 16 and 18). Concentrations of 200 μg/mL TZP3 or TZP5 in 20 μL of PBS were applied to the dorsal skin once daily for 18 days.
Blood was collected from each experimental group via cardiac puncture and was centrifuged at 3000 rpm and 4 °C for 20 min to obtain the serum. The levels of IgE, IgG2a were measured with an enzyme-linked immunosorbent assay kit (Bethyl Laboratories, Montgomery, TX, USA), following the manufacturer’s instructions.

[2] = system: inflammatory cytokine expression in dorsal skin tissue; assay: DNCB-induced AD model, cytokine mRNA expression by real-time PCR; format: in vivo, BALB/c mice; settings: AD-like skin lesions, n = 8
Experimental: as §1
For the reverse transcription (RT) - polymerase chain reaction (PCR), the total cellular RNA was isolated from the dorsal skin tissue of each treatment group using TRIzol according to the manufacturer’s protocol. The first-strand complementary DNA (cDNA) was synthesized using Superscript II reverse transcriptase (Invitrogen). The conditions for RT-PCR were similar ones that have been previously described in related studies. Quantitative real-time PCR was carried out using a Thermal Cycler Dice TP850 (Takarabio Inc., Shiga, Japan) according to the manufacturer’s protocol. Briefly, 2 μL of cDNA (100 ng), 1 μL of sense and antisense primer solution (0.4 µM), 12.5 μL of SYBR Premix Ex Taq (Takarabio Inc.), and 9.5 μL of dH2O were mixed to obtain a final 25-μL reaction mixture in each reaction tube. The amplification conditions were as follows: 10 s at 95 °C, 40 cycles of 5 s at 95 °C and 30 s at 60 °C, 15 s at 95 °C, 30 s at 60 °C, and 15 s at 95 °C. The mRNA levels of the target genes relative to that of GAPDH were normalized as follows: relative mRNA expression = 2^-(ΔCt of target gene−ΔCt of GAPDH), where Ct is the threshold cycle value. In each sample, the expression level of the analyzed gene was normalized to that of GAPDH and presented as a relative mRNA level.

[3] = system: AD-like skin lesion in BALB/c mice; assay: DNCB-induced AD-like skin lesion model, dermatitis score; format: in vivo; settings: 200 μg/mL in 20 μL PBS on dorsal skin once daily for 18 days, versus AD mice, n = 8
Experimental: as §1
The severity of dermatitis on the dorsal skin lesions was evaluated three times per week, according to a slight modification of the criteria described previously. The development of (1) erythema/hemorrhage, (2) scarring/dryness, (3) edema, and (4) excoriation/erosion was scored as 0 (none), 1 (mild), 2 (moderate), or 3 (severe). The sum of the individual scores was defined as the dermatitis score.

HaCaT cells = assay: Cytotoxicity, MTT assay; format: cell-based; settings: 24 h, maximum tested concentration (20 µg)
Experimental: page 6: Figure S2. Effect of TZP3 and TZP5 on β-hexosaminidase release in RBL-2H3 cells Cytotoxicity evaluation of TZP3 and TZP5 on HaCaT cells Figure S3: Cytotoxicity evaluation of TZP3 […] and TZP5 (b) on HaCaT cells. TZP3 and TZP5 were treated with HaCaT cells in various concentrations for 24 h followed by MTT assay, and absorbance was measured. Cell viability was calculated as the relative absorbance. […]

Row | Structure (SMILES) | serum level of total IgE [1] | serum level of total IgG2a [1] | IL-4 suppression (mRNA expression) [2] | inhibition of IFN-γ mRNA expression [2] | inhibition of IL-1β mRNA expression [2] | inhibition of IL-13 mRNA expression [2] | inhibition of IL-17 mRNA expression [2] | inhibition of TNF-α mRNA expression [2] | suppression of IL-6 mRNA expression [2] | suppression of IL-10 mRNA expression [2] | dermatitis score [3] | cytotoxicity in HaCaT cells (HaCaT cells)
1 | NCCCN(CCCN)c1nc(N)nc(NCCNc2nc(Cl)nc(N(Cc3ccccc3)Cc3ccccc3)n2)n1 [TZP3] | significantly reduced | significantly reduced | around 35% | around 60% | more than 70% | more than 70% | 60% | approximately 55% | around 60% | around 35% | significantly decreased score | didn’t show significant cytotoxicity
2 | NCCCN(CCCN)c1nc(Cl)nc(NCCNc2nc(NCCNc3nc(N)nc(NCCC(c4ccccc4)c4ccccc4)n3)nc(N(CCCN)CCCN)n2)n1 [TZP5] | significantly reduced | significantly reduced | around 35% | around 60% | > 75% | > 75% | more than 85% | ~65% | ~50% | almost similar potency with the dermatop | significantly decreased score | didn’t show significant cytotoxicity
